Data on 6 molecules can be found in patent US20070219348A1, “Mutations in the mineralocorticoid receptor ligand binding domain polypeptide that permit structural determination of low affinity ligand complexes and screening methods employing same” (priority 2006, published 2007).

Numbering of substitutions follows the chain as printed. Like-named read-outs stand apart in the source and are kept apart here.

The target in data set [1] is Reporter Alone. Nature of the data set: Ligand binding affinities on MR constructs (Table 1), Reporter Alone. As to conditions: read-out: IC50 binding affinity, Reporter Alone. The method, then:
(§1) As used herein, the terms “weakly binding ligand” and “weak ligand” are used interchangeably and mean a ligand that binds a receptor with low affinity. The binding strength of a ligand to a receptor can be experimentally measured using any of several procedures, as is generally known in the art. In some embodiments of the presently disclosed subject matter, ligand binding is measured using a competitive binding assay in which a ligand of interest competes with a labeled ligand for binding to a receptor. […] This quantitative measurement can be expressed as an IC50 value. Therefore, the greater the IC50 value of a ligand, the lower the binding affinity the ligand has for the receptor.
(§2) Cortisol has a hydroxyl attached to C11, where cortisone has a ketone.

Data set [2] concerns the target T1, MR S810L (Homo sapiens, UniProt P08235, S810L).
T1 sequence (P08235 1-984 S810L): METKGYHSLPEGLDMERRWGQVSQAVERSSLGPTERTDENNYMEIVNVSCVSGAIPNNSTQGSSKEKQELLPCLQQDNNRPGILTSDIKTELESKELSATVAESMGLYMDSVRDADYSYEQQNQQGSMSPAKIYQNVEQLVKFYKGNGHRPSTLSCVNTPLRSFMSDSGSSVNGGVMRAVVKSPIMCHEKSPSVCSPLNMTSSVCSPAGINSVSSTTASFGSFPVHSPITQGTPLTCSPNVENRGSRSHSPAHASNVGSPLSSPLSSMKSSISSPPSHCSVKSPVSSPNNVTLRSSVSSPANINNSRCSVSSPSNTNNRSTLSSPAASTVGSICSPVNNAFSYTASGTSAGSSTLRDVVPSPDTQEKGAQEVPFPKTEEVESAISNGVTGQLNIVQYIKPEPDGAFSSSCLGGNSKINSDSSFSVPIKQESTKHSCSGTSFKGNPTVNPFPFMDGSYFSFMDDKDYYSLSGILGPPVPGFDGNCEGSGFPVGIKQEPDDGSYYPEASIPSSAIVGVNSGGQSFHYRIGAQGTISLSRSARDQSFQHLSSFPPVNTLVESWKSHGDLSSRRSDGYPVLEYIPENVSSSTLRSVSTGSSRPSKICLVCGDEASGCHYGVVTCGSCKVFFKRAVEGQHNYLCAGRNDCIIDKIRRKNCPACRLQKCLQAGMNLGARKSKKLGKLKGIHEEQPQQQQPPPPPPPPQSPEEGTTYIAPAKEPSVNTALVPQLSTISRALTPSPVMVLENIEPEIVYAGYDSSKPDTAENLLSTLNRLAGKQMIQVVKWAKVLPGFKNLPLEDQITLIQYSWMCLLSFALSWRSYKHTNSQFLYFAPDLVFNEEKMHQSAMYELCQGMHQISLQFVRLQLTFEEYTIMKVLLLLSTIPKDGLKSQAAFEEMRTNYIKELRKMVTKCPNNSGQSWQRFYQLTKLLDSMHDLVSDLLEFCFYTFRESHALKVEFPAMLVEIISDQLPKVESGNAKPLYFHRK
The data set can be described thus: Ligand binding affinities on MR constructs (Table 1), MR S810L. As to conditions: read-out: IC50 binding affinity, MR S810L. The method, then:
as §1, §2

For data set [3], the target named is T2, MR (Homo sapiens, UniProt P08235).
T2 sequence (P08235 1-984): T1 sequence (P08235 1-984 S810L) with L810S
As to conditions: Quinkler & Stewart, 2003; cited from earlier work.

Data set [4] deals with T3, Wild type MR (Homo sapiens, UniProt P08235).
T3 sequence (P08235 1-984): T1 sequence (P08235 1-984 S810L) with L810S
Nature of the data set: Ligand binding affinities on MR constructs (Table 1), wild type MR. The method, then:
as §1, §2

Data set [5] deals with the molecule itself. Nature of the data set: X-ray crystal structure of native MR LBD with deoxycorticosterone (crystal contact).

A word on the IC50: it is the midpoint of a concentration-inhibition curve.

Regarding `C[C@]12CCC(=O)C=C1CC[C@@H]1[C@@H]2[C@@H](O)C[C@]2(C=O)[C@@H](C(=O)CO)CC[C@@H]12` [Aldosterone, aldosterone], the IC50 in data set [1] (in uM) was over 10 µM.
Take `C[C@]12CCC(=O)C=C1CC[C@@H]1[C@@H]2[C@@H](O)C[C@@]2(C)[C@H]1CC[C@]2(O)C(=O)CO` [Cortisol, cortisol]: the IC50 worked out at 20 nM in data set [2]; 0.785 µM in data set [1] (cells printed in nM); 21 nM in data set [4] (Wild type MR, cells printed in nM, read-out: IC50 binding affinity, Wild type MR). For the same molecule, the “binding affinity for MR in words” value in data set [3] is given as “low nM binder”.
Take `C[C@]12CCC(=O)C=C1CC[C@@H]1[C@@H]2C(=O)C[C@@]2(C)[C@H]1CC[C@]2(O)C(=O)CO` [Cortisone, cortisone]: the IC50 in data set [2] was 20 nM; in data set [1] (in uM) it was over 10 µM; in data set [4] (Wild type MR, in uM, read-out: IC50 binding affinity, Wild type MR) it was over 10000 nM; in data set [4] (wild-type MR, read-out: IC50 binding affinity, wild-type MR) it was over 10000 nM. In addition, the “binding affinity for MR in words” value in data set [3] is listed as “micromolar binder”. In addition, the “fold difference in IC50s between cortisone and cortisol” value in data set [4] (wild type MR, transactivation assays) is over 700 fold.
In the case of `CC(=O)[C@H]1CC[C@H]2[C@@H]3CCC4=CC(=O)CC[C@]4(C)[C@H]3CC[C@]12C` [Progesterone, progesterone], the half-maximal inhibitory concentration (IC50) in data set [1] (in uM) was over 10 µM.
With `CC(=O)S[C@@H]1CC2=CC(=O)CC[C@]2(C)[C@H]2CC[C@@]3(C)[C@@H](CC[C@@]34CCC(=O)O4)[C@H]12` [Spironolactone, spironolactone], in data set [1] (cells printed in nM), the half-inhibitory concentration (IC50) was found to be 0.0036 µM.

B1: Native (wild type) MR LBD (amino acids 712-984) (receptor)
chain: APAKEPSVNTALVPQLSTISRALTPSPVMVLENIEPEIVYAGYDSSKPDTAENLLSTLNRLAGKQMIQVVKWAKVLPGFKNLPLEDQITLIQYSWMCLSSFALSWRSYKHTNSQFLYFAPDLVFNEEKMHQSAMYELCQGMHQISLQFVRLQLTFEEYTIMKVLLLLSTIPKDGLKSQAAFEEMRTNYIKELRKMVTKCPNNSGQSWQRFYQLTKLLDSMHDLVSDLLEFCFYTFRESHALKVEFPAMLVEIISDQLPKVESGNAKPLYFHRK
notes: Crystallized with deoxycorticosterone; the final model holds residues 727-908 and 914-984; also called native MR; WT MR
For B1, the binding result in data set [5] was “binds”.
